Laboratory results taken from US9522187B2, “Cancer therapy using beta glucan and antibodies” (University of Louisville Research Foundation, Inc., priority 2002, dated 2016).

Tests used:
CR3 [1] = target: T1, CR3 (Homo sapiens, UniProt P11215); assay: Inhibition of SZP-FITC staining of neutrophils by unlabeled polysaccharides; type: binding; settings: compared with soluble yeast MP β-glucan or SZP
T1 construct: endogenous in cells
Protocol: Neutrophils were incubated at 4° C. with graded concentrations of β-glucans (SZP, laminarin, MP β-glucan, barley β-glucan, and lentinan), α-mannan or dextran for 15 minutes and then stained by addition of 1.0 mg/ml of SZP-FITC and incubated for an additional 15 minutes at 4° C. Percentage inhibition was then compared with polysaccharide concentration. […] Similar results were obtained when the same unlabeled polysaccharides were examined for inhibition of laminarin β-glucan-FITC staining. The rank order for inhibiting activity for both experiments was SZP>laminarin>MP β-glucan. However, CM β-glucan (carboxymethyl β-glucan from yeast), barley β-glucan, and lentinan inhibited laminarin-FITC staining more efficiently than they inhibited SZP-FITC staining.

[2] = system: human LAN-1 neuroblastoma; assay: Oral barley β-glucan with antibody against LAN-1 neuroblastoma xenograft (FIG. 10); type: in vivo, athymic BALB/c mice; settings: β-glucan daily by gavage for 21-29 days; 3F8 i.v. twice weekly
Protocol: Neuroblastoma cells were xenografted subcutaneously in athymic BALB/c mice. Treatment started in groups of 5 mice, 2 weeks after tumor implantation when visible tumors reached 0.7-0.8 cm in diameter. The β-glucan groups was treated with […] daily by gavage for a total of 21-29 days. Monoclonal antibodies (3F8) were administered i.v. at a dose of […] twice weekly. Tumor size was measured from the first day of treatment, and the product of the largest diameter was expressed as a percentage of the size on day zero.

CR3 [3] = target: T1, CR3; assay: Neutrophil fluorescence staining by FITC-labeled polysaccharides (flow cytometry); type: binding; settings: neutrophils
From the text: Fluorescence intensity values obtained with individual polysaccharide-FITC conjugates cannot be compared, since the molar ratio of FITC to polysaccharide is likely to differ and cannot be readily calculated.

Human NK cells = assay: β-glucan and CR3-dependent stimulation of NK cell cytokine secretion, ELISA (FIG. 13); type: cell-based; settings: 18 hours at 37° C.; particulate yeast β-glucan and grifolan 2 g/ml, MP β-glucan and SZP 2.0 μg/ml
Protocol: The function of NK cells in mediating host defense includes both direct cytotoxicity of tumor cells and the secretion of cytokines such as TNF-α and IFN-γ that can potentially regulate immune responses and recruit tumoricidal macrophages. […] Human NK cells were cultured with either particulate yeast β-glucan or soluble CR3-binding polysaccharides for 18 hours at 37° C. Culture supernatants were then analyzed for TNF-α by ELISA. […] Anti-CR3 blocks both β-glucan binding to CR3, as well as the binding of primed CR3 to iC3b on the EC3bi target cells.

[4] = system: advanced low-grade or slow-growing NHL; settings: patients who completed treatment; cited from earlier work
MMT mammary carcinoma = assay: β-glucan therapy of MMT mammary carcinoma in normal and C3-deficient 129/J mice (FIG. 8); type: in vivo; settings: daily i.v. therapy
From the text: The requirement for C3 in β-glucan therapy was confirmed in experiments with C3-deficient 129/J mice implanted with the MMT mammary carcinoma. Twelve normal (C3+/+) and 12 C3-deficient (C3−/−) 129/J mice were implanted with the MMT mammary carcinoma tumor cell line and palpable tumors were allowed to form before beginning daily i.v. therapy of groups of 6 mice each with PBS or β-glucan. A similar protocol was used with normal (CD+/+) and CR3-deficient (CD11b-knockout; Cd11b−/−) BALB/c mice implanted with Ptas64 mammary tumors.

EL-4 lymphoma = assay: mAb and/or β-glucan therapy of hepatic EL-4 lymphoma (FIG. 9, FIG. 15); type: in vivo, C57B1/6 mice; settings: therapy from day 10 for 2 weeks; SZP β-glucan 100 μl of 4 mg/ml i.v. daily; 3F8 100 μl of 2 mg/ml i.v. every 3rd day
Protocol: Mice were injected with the EL-4 cells i.v., a protocol known to result in liver metastases. Ten days later, the mice were given daily i.v. doses of β-glucan alone, 3F8 mAb to GD2 ganglioside (a prominent tumor antigen of EL-4 cells), or 3-glucan plus 3F8 mAb. The 3F8 mAb is IgG3 and is a potent activator of complement and also mediates ADCC. […] As expected, the β-glucan had little effect on its own since the tumors bore little or no iC3b.
The C57B1/6 lymphoma EL-4, that highly expresses membrane GD2 ganglioside, was provided by Dr. Nai-Kong V. Cheung. Normal C57B1/6 mice were injected with 3×10^5 EL-4 cells i.v. to generate liver tumors (Zhang, H., et al., Cancer Res., 58: 2844-2849 (1998)). Ten days later, 4 groups of 6 mice were given i.v. 100 μl doses of: a) PBS (control group), b) SZP β-glucan (4 mg/ml) repeated daily, c) 3F8 mAb to GD2 ganglioside (2 mg/ml) repeated every 3rd day, or d) both daily β-glucan and 3F8 mAb every 3rd day. After 2 weeks of therapy, the mice were sacrificed and their livers were removed and weighed in comparison to the livers of a group of normal tumor-free mice. The net weight of liver tumors was calculated by subtracting the weight of a normal liver (1.0 g) from the weights of the livers from tumor-bearing mice. […]

RMA-S lymphoma = assay: Survival of mice with RMA-S hepatic lymphomas treated with 14.G2a and/or β-glucan (FIG. 16); type: in vivo, C57B1/6 mice; settings: therapy from day 5 for 3 weeks
Protocol: The C57B1/6 lymphoma EL-4, that highly expresses membrane GD2 ganglioside, was provided by Dr. Nai-Kong V. Cheung. Normal C57B1/6 mice were injected with 3×10^5 EL-4 cells i.v. to generate liver tumors (Zhang, H., et al., Cancer Res., 58: 2844-2849 (1998)). Ten days later, 4 groups of 6 mice were given i.v. 100 μl doses of: a) PBS (control group), b) SZP β-glucan (4 mg/ml) repeated daily, c) 3F8 mAb to GD2 ganglioside (2 mg/ml) repeated every 3rd day, or d) both daily β-glucan and 3F8 mAb every 3rd day. After 2 weeks of therapy, the mice were sacrificed and their livers were removed and weighed in comparison to the livers of a group of normal tumor-free mice. The net weight of liver tumors was calculated by subtracting the weight of a normal liver (1.0 g) from the weights of the livers from tumor-bearing mice. A similar liver tumor model was carried out using the C57B1/6 lymphoma RMA-S that similarly expresses GD2 ganglioside but is defective in peptide loading of MHC class I (kindly provided by Dr. Olivera J. Finn, Pittsburgh Cancer Institute, Pittsburgh, Pa.) in combination with 14.G2a mAb to GD2 ganglioside (100 μg, given i.v. every 3rd day). Mice were similarly divided into 4 groups that were treated beginning 5 days after i.v. injection of 3×10^5 cells with: 1) i.v. PBS (control), 2) i.v. NSG β-glucan (400 μg per day), 3) 14.G2a mAb, or 4) both NSG β-glucan and 14.G2a mAb. […]

RMA-S-MUC1 tumor cells [5] = assay: s.c. RMA-S-MUC1 tumor therapy with 14.G2a or BCP8 mAb and/or NSG β-glucan (FIG. 17B-C, 18B-C); type: in vivo, C57B1/6 mice; settings: 2-week therapy, observed for a 4-month period
Protocol: Three different tumor therapy protocols are shown. FIG. 17A is a graph showing Pta64 therapy with 11CI anti-MMTV mAb combined with glucan. FIG. 17B is a graph showing RMA-S-MUC1 therapy with i.v. 14 G2a anti-GD2 mab combined with glucan. FIG. 17C is a graph showing RMA-S-MUC1 therapy with i.v. BCP8 anti-MUC1 mab combined with glucan. After tumor cells were implanted, small tumors were allowed to form over 5-9 days before immunotherapy was carried out for a total period of 14 days. […] In graphs B and C, C57B1/6 mice were implanted s.c. with RMA-S-MUC1 tumor cells and then 5 days later treated with either 14.G2a anti-GD2 ganglioside and/or NSG β-glucan (300 μg per day) or BCP8 IgG2b […] and/or NSG β-glucan ([…] per day). […] Mean values and standard errors (SE) of the mean are shown.
(§1) RMA-S cells transfected with human MUC1 were also provided by Dr. Finn (Soares, M. M., et al., J. Immunol., 166: 6555-6563 (2001)), and 1×10^6 cell were implanted s.c. in C57B1/6 mice in or near a mammary fat pad. […]

RMA-S-MUC1 tumor cells [6] = assay: s.c. RMA-S-MUC1 tumor therapy in CR3-deficient versus wild-type mice (FIG. 19, 20); type: in vivo, C57B1/6 mice
Protocol: FIGS. 19A-19B are graphs showing the enhancement of tumor regression mediated by NSG β-glucan requires leukocyte CR3 and fails in CR3-deficient (CD11b^−/−) mice. FIG. 19A is a graph showing the tumor diameter vs. therapy of wild type mice. FIG. 19B is a graph showing the tumor diameter vs. therapy of CR3 deficient mice. […] Tumor measurements were made at the indicated times (FIGS. 19A-19B) and then survival was monitored (FIGS. 20A-20B). Mice received 14.G2a anti-GD2 ganglioside mAb (100 μg every 3rd day) and/or NSG β-glucan (400 μg daily). There was no difference in the rate of tumor regression produced by mAb therapy alone in the CR3-deficient versus wild-type mice and there was no β-glucan enhancement of mAb-mediated tumor regression in the CR3-deficient mice. […] Mean values±SE of the mean are shown.
as §1

[7] = system: Lewis Lung carcinoma tumor cells transfected with human MUC1 (LL/2-MUC1); assay: s.c. LL/2-MUC1 Lewis lung carcinoma therapy in C3-deficient versus wild-type mice (FIG. 21, 22); type: in vivo, C57B1/6 mice
Protocol: C3-deficient (C3^−/−) mice and their wild-type littermates on a C57BL/6 background were implanted s.c. with 1×10^6 Lewis Lung carcinoma tumor cells transfected with human MUC1 (LL/2-MUC1). After allowing 7 days for development of small tumors, mice were treated with BCP8 IgG2b anti-MUC1 mAb (200 μg every 3rd day) and/or NSG β-glucan (400 μg daily) for a total therapy period of 3 weeks. […] Mean values±SE of the mean are shown.
Lewis lung carcinoma cells (LL/2, CRL-1642) originally derived from C57B1/6 mice were obtained from the ATCC and transfected with a plasmid containing cDNA for human MUC1 that was provided by Dr. Olivera Finn (Soares, M. M., et al., J. Immunol., 166: 6555-6563, 2001.). A LL/2 line expressing a uniformly high surface density of MUC1 was selected by FACS sorting of cells stained with BCP8-FITC mAb (MoFlo High Speed Cell Sorter, Dako-Cytomation, Fort Collins, Colo.). A further selection was made by passaging the cell line two times in C57B1/6 mice given the cells s.c. A tumor line was selected that both expressed uniformly high levels of surface MUC1 and was capable of generating s.c. tumors in C57B1/6 injected with as few as 5×10^5 cells. Therapy of mice bearing these s.c. tumors was initiated after 7 days when tumors were only 1-2 mm in diameter. Four groups of six C3-deficient or their wild-type littermate C57B1/6 mice were treated with: a) i.v. PBS every 3rd day (control); b) 400 μg of NSG β-glucan given i.v. daily; c) 200 μg of BCP8 anti-MUC1 mAb given i.v. every 3rd day; d) combined therapy with BCP8 mAb and NSG β-glucan. Therapy was given for 3 weeks with measurement of tumor diameters every 3rd day, and mice were sacrificed when tumors reached 15 mm diameter. Mice were observed over a total period of 90 days for tumor-free survival.

[8] = system: iC3b-opsonized breast tumor cells; assay: β-glucan priming of murine neutrophil CR3 for cytotoxicity (FIG. 4); type: cell-based; settings: normal murine neutrophils
Protocol: The effect of β glucan priming of murine neutrophil CR3 on subsequent cytotoxic triggering by iC3b-opsonized breast tumor cells is shown in FIG. 4. […] This activity disappears, however, when antibody to the CD11b (murineCR3 equivalent) is added, interfering with the receptor's ability to bind to iC3b. […] Adding antibody against CD11b had little effect on CD11b-deficient neutrophils, as expected.

(1,3),(1,4)-β-D-glucan [barley β-glucan]
affinity for CR3 (in words) (CR3 [1]): relatively low affinity for CR3
tumor growth (tumor size as percentage of day zero), in words [2]: neither β-glucan or mAb alone showed much effect

Dextran-FITC
Polysaccharide-FITC Concentration Required for Maximum Specific Fluorescence Staining (Saturation of Receptor Binding Sites) (CR3 [3]): No specific staining
Specific Fluorescence Mean Channel at Saturation (Total-Nonspecific Fluorescence Obtained in the Presence of Excess of Unlabeled Polysaccharide) (CR3 [3]): 0

grifolan
NK cell cytokine secretion in the absence of target cells, in words (Human NK cells): secretion of both TNF-α and IL-6

rituximab: monoclonal antibody used to treat a type of non-Hodkin's lymphoma
patients having complete remission [4]: 6%
patients whose tumors shrunk by at least one half [4]: 48%

β-glucan
tumor reduction (MMT mammary carcinoma; C3-deficient (C3−/−) 129/J mice): no significant tumor reduction
tumor reduction (MMT mammary carcinoma; normal (C3+/+) 129/J mice): 79%
reduction in liver tumor net weight compared to untreated controls (EL-4 lymphoma): 25.6%
survival, in words (RMA-S lymphoma): no therapeutic benefit
survival (RMA-S-MUC1 tumor cells [5]): 20%
tumor regression, in words (RMA-S-MUC1 tumor cells [6]; CR3-deficient mice): no regression
mice remaining tumor-free (survival) (RMA-S-MUC1 tumor cells [6]; wild-type mice, 14.G2a 100 μg every 3rd day, NSG β-glucan 400 μg daily, 21 days): no survivors
regression and survival, in words ([7]; C3-deficient mice): neither mAb nor β-glucan, separately or combined, elicited any regression
survival, in words ([7]; wild-type mice): survival advantage compared to mAb alone
tumor regression, in words ([7]; wild-type mice, BCP8 200 μg every 3rd day, NSG β-glucan 400 μg daily, 3 weeks): lower level of regression
cytotoxicity towards iC3b-opsonized breast tumor cells, in words [8]: high level of cytotoxicity
